Results from ChEMBL document CHEMBL1147031, “3D-QSAR and molecular docking studies of benzaldehyde thiosemicarbazone, benzaldehyde, benzoic acid, and their derivatives as phenoloxidase inhibitors” (Bioorg Med Chem, 2007).

Test: Inhibition of pieris rapae Phenoloxidase

| SMILES | IC50 |
| --- | --- |
| Nc1ccc(C(=O)O)cc1O | 25.5 mM |
| CC(C)c1ccc(C=O)cc1 | 0.86 mM |
| COc1ccc(C=O)cc1 | 1.9 mM |
| COc1cccc(C(=O)O)c1 | 13.3 mM |
| COc1cccc(C=O)c1 | 42.9 mM |
| O=C(O)c1ccc(O)cc1O [2,4-DIHYDROXYBENZOIC ACID] | 30.5 mM |
| COc1ccccc1C=O [2-METHOXYBENZALDEHYDE] | 107 mM |
| O=Cc1cccc(O)c1 [3-HYDROXYBENZALDEHYDE] | 9.62 mM |
| O=C(O)c1cccc(O)c1 [3-HYDROXYBENZOIC ACID] | 16.2 mM |
| O=Cc1ccccc1 [BENZALDEHYDE] | 5.9 mM |
| O=C(O)c1ccccc1 [BENZOIC ACID] | 14.2 mM |
| O=C(O)c1cc(O)ccc1O [GENTISIC ACID] | 32.5 mM |
| COc1ccc(C(=O)O)cc1O [ISOVANILLIC ACID] | 47.5 mM |
| COc1ccc(C=O)cc1O [ISOVANILLIN] | 24.9 mM |
| O=C(O)c1ccc(O)cc1 [PARABEN] | 16.2 mM |
| O=Cc1ccc(O)c(O)c1 [PROTOCATECHUALDEHYDE] | 9 mM |
| O=C(O)c1ccc(O)c(O)c1 [PROTOCATECHUIC ACID] | 29.5 mM |
| O=C(O)c1ccccc1O [SALICYLIC ACID] | 33.8 mM |
| COc1cc(C(=O)O)ccc1O [VANILLIC ACID] | 69 mM |
| COc1cc(C=O)ccc1O [VANILLIN] | 50.5 mM |

Other lines, results leading:

| IC50 | SMILES |
| --- | --- |
| 4.14 mM | O=Cc1ccccc1O |
| 1.92 mM | CC(C)c1ccc(C(=O)O)cc1 |
| 1.75 mM | CCCc1ccc(C(=O)O)cc1 |
| 5.75 mM | COc1cccc(C=O)c1O |
| 0.00192 mM | COc1cccc(/C=N/NC(N)=S)c1 |
| 0.0022 mM | NC(=S)N/N=C/c1ccccc1O |
| 0.72 mM | CC(C)(C)c1ccc(C=O)cc1 |
| 3.8 mM | Nc1cc(C(=O)O)ccc1O |
| 1.05 mM | O=Cc1cc(O)ccc1O |
| 4.88 mM | O=Cc1ccc(O)cc1O |
| 2 mM | COc1ccc(C=O)c(O)c1 |
| 0.00065 mM | NC(=S)N/N=C\C=C\c1ccccc1 |
| 0.0006 mM | COc1ccc(/C=N/NC(N)=S)cc1 |
| 2.1 mM | CC(C)(C)c1ccc(C(=O)O)cc1 |
| 3.12 mM | O=Cc1ccc(O)cc1 [4-HYDROXYBENZALDEHYDE] |
| 0.00084 mM | NC(=S)N/N=C/c1ccccc1 [PHENYLTHIOSEMICARBAZONE] |
| 5.55 mM | COc1ccc(C(=O)O)cc1 [p-ANISIC ACID] |
